Measurements published in PubChem BioAssay (NCI).
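Grown in 96-well plates, cells were treated for 48 hours with each compound at five concentrations. Insufficient inhibition: endpoint recorded as highest concentration tested. GI50 is the concentration that inhibits growth by half. TGI denotes the concentration required for complete inhibition of growth.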 Active and inactive are the calls of the source. Cut-off read from the data, not from the text of the source: active = GI50 below about 0.43 µM; inactive = the rest.

Legend:
Experiment in all cases: NCI-60 cell line screen, 48 h
[1] = tested on: DLD-1 colon
[2] = tested on: OVCAR-3 ovarian
[3] = tested on: BT-549 breast
[4] = tested on: HCC-2998 colon
[5] = tested on: SK-MEL-5 melanoma
[6] = tested on: DMS 273 small cell lung
[7] = tested on: KM20L2 colon
[8] = tested on: HCT-116 colon
[9] = tested on: NCI-H522 lung
[10] = tested on: DU-145 prostate
[11] = tested on: U251 CNS
[12] = tested on: MCF7 breast
[13] = tested on: A549 NSCLC
[14] = tested on: K-562 leukemia
[15] = tested on: NCI-H460 lung
[16] = tested on: RPMI-8226 leukemia
[17] = tested on: OVCAR-8 ovarian
[18] = tested on: NCI-H23 lung
[19] = tested on: COLO 205 colon
[20] = tested on: OVCAR-5 ovarian
[21] = tested on: CCRF-CEM leukemia
[22] = tested on: LOX IMVI melanoma
[23] = tested on: A498 renal
[24] = tested on: HL-60(TB) leukemia
[25] = tested on: SK-OV-3 ovarian
[26] = tested on: HCT-15 colon
[27] = tested on: SK-MEL-28 melanoma
[28] = tested on: DMS 114 small cell lung
[29] = tested on: OVCAR-4 ovarian
[30] = tested on: HS 578T breast
[31] = tested on: M19-MEL melanoma
[32] = tested on: SNB-75 CNS
[33] = tested on: SR leukemia
[34] = tested on: HOP-62 NSCLC
[35] = tested on: PC-3 prostate
[36] = tested on: CAKI-1 renal
[37] = tested on: UACC-62 melanoma
[38] = tested on: IGROV1 ovarian
[39] = tested on: T-47D breast
[40] = tested on: M14 melanoma
[41] = tested on: SNB-19 CNS
[42] = tested on: 786-0 renal
[43] = tested on: SN12C renal
[44] = tested on: SW-620 colon
[45] = tested on: MDA-MB-231 breast
[46] = tested on: ACHN renal
[47] = tested on: NCI-H226 lung
[48] = tested on: UACC-257 melanoma
[49] = tested on: MDA-N
[50] = tested on: EKVX NSCLC

With `C=CC(=O)C#CC#CC/C=C\CCCCCCC` the TGI [1] was > 20.6 µM, the TGI [2] was > 20.6 µM and the outcome [2] was “inactive”. The TGI [3] was > 20.6 µM, the TGI [4] was > 20.6 µM and the outcome [4] was “inactive”. The TGI [5] was > 20.6 µM, the outcome [5] was “inactive” and the TGI [6] was > 20.6 µM. For the same molecule, the TGI [7] was > 20.6 µM, the TGI [8] was > 20.6 µM and the outcome [8] was “inactive”. For the same molecule, the TGI [9] was > 20.6 µM, the outcome [9] was “inactive” and the TGI [10] was > 20.6 µM. The outcome [10] was “inactive”, the TGI [11] was > 20.6 µM and the outcome [11] was “inactive”. For the same molecule, the TGI [12] was > 20.6 µM, the outcome [12] was “inactive” and the TGI [13] was > 20.6 µM. The outcome [13] was “inactive”, the TGI [14] was > 20.6 µM and the outcome [14] was “inactive”. The TGI [15] was > 20.6 µM, the outcome [15] was “inactive” and the TGI [16] was > 18.6 µM. The outcome [16] was “inactive”, the TGI [17] was > 20.6 µM and the outcome [17] was “inactive”. The TGI [18] was > 20.6 µM, the outcome [18] was “inactive” and the TGI [19] was > 20.6 µM. For the same molecule, the outcome [19] was “inactive”, the TGI [20] was > 20.6 µM and the outcome [20] was “inactive”. For the same molecule, the TGI [21] was > 17.3 µM, the outcome [21] was “inactive” and the TGI [22] was > 20.6 µM. The outcome [22] was “inactive”, the TGI [23] was > 20.6 µM and the outcome [23] was “inactive”. For the same molecule, the TGI [24] was > 20.6 µM, the outcome [24] was “inactive” and the TGI [25] was > 20.6 µM. For the same molecule, the outcome [25] was “inactive”, the TGI [26] was > 20.6 µM and the outcome [26] was “inactive”. For the same molecule, the TGI [27] was > 20.6 µM, the outcome [27] was “inactive” and the TGI [28] was > 20.6 µM. The TGI [29] was > 20.6 µM, the outcome [29] was “inactive” and the TGI [30] was > 20.6 µM. The outcome [30] was “inactive”, the TGI [31] was > 20.6 µM and the TGI [32] was > 20.6 µM. For the same molecule, the outcome [32] was “inactive”, the TGI [33] was 14.2 µM and the outcome [33] was “inactive”. The TGI [34] was > 20.6 µM, the outcome [34] was “inactive” and the outcome [35] was “inactive”. The TGI [36] was > 20.6 µM, the outcome [36] was “inactive” and the TGI [37] was > 20.6 µM. The outcome [37] was “inactive”, the TGI [38] was > 6.51 µM and the outcome [38] was “inactive”. For the same molecule, the TGI [39] was > 20.6 µM, the outcome [39] was “inactive” and the TGI [40] was > 20.6 µM. For the same molecule, the outcome [40] was “inactive”, the TGI [41] was > 20.6 µM and the outcome [41] was “inactive”. The TGI [42] was > 18.4 µM, the outcome [42] was “inactive” and the TGI [43] was > 20.6 µM. For the same molecule, the outcome [43] was “inactive”, the TGI [44] was > 20.6 µM and the outcome [44] was “inactive”. For the same molecule, the TGI [45] was > 20.6 µM, the outcome [45] was “inactive” and the TGI [46] was > 20.6 µM. For the same molecule, the outcome [46] was “inactive”, the TGI [47] was > 20.6 µM and the outcome [47] was “inactive”. The TGI [48] was > 20.6 µM, the outcome [48] was “inactive” and the outcome [49] was “inactive”. For the same molecule, the TGI [50] was > 20.6 µM and the outcome [50] was “inactive”.

`C[CH2][Sn]([CH2]C)([O]C(=O)c1ccccc1F)[O]C(=O)c1ccccc1F` was tested, and the GI50 [1] was 29.8 µM, the TGI [1] was > 91.3 µM and the GI50 [2] was > 100 µM. The TGI [2] was > 100 µM, the GI50 [3] was 18.1 µM and the TGI [3] was 35.8 µM. The GI50 [4] was > 100 µM, the TGI [4] was > 100 µM and the GI50 [5] was 50.2 µM. For the same molecule, the TGI [5] was > 100 µM, the GI50 [6] was > 67 µM and the TGI [6] was > 100 µM. For the same molecule, the GI50 [7] was > 83.8 µM, the TGI [7] was > 100 µM and the GI50 [8] was > 69.8 µM. The TGI [8] was > 100 µM, the GI50 [9] was 2.1 µM and the TGI [9] was 6.84 µM. The GI50 [10] was > 100 µM, the TGI [10] was > 100 µM and the GI50 [11] was 47.4 µM. The TGI [11] was > 85.1 µM, the GI50 [12] was 27.4 µM and the TGI [12] was 80.6 µM. The GI50 [13] was > 100 µM, the TGI [13] was > 100 µM and the GI50 [14] was 16.2 µM. The TGI [14] was 55.1 µM, the GI50 [15] was > 100 µM and the TGI [15] was > 100 µM. The GI50 [16] was 17.2 µM, the TGI [16] was 45.7 µM and the GI50 [17] was > 70.5 µM. The TGI [17] was > 100 µM, the GI50 [18] was 22.6 µM and the TGI [18] was 45 µM. The GI50 [19] was 38.8 µM, the TGI [19] was 62.3 µM and the GI50 [20] was > 97.4 µM. For the same molecule, the TGI [20] was > 100 µM, the GI50 [21] was 8.77 µM and the TGI [21] was 35.6 µM. The GI50 [22] was 19.2 µM, the TGI [22] was 40.8 µM and the GI50 [23] was 18.5 µM. For the same molecule, the TGI [23] was 35.5 µM, the GI50 [24] was > 45.2 µM and the TGI [24] was > 100 µM. For the same molecule, the GI50 [25] was > 100 µM, the TGI [25] was > 100 µM and the GI50 [26] was 29 µM. The TGI [26] was > 67.7 µM, the GI50 [27] was 29.1 µM and the TGI [27] was 47.6 µM. The GI50 [28] was 20.4 µM, the TGI [28] was 43.1 µM and the GI50 [29] was > 100 µM. For the same molecule, the TGI [29] was > 100 µM, the GI50 [30] was 42.2 µM and the TGI [30] was > 100 µM. For the same molecule, the GI50 [31] was 29.8 µM, the TGI [31] was > 77.2 µM and the GI50 [32] was 21.7 µM. For the same molecule, the TGI [32] was > 53.4 µM, the GI50 [33] was 22.6 µM and the TGI [33] was > 100 µM. The GI50 [34] was > 100 µM, the TGI [34] was > 100 µM and the GI50 [35] was > 100 µM. The TGI [35] was > 100 µM, the GI50 [36] was 11.9 µM and the TGI [36] was 19.6 µM. The GI50 [37] was 27.2 µM, the TGI [37] was 52.4 µM and the GI50 [38] was > 100 µM. For the same molecule, the TGI [38] was > 100 µM, the GI50 [39] was 11.8 µM and the TGI [39] was 24.4 µM. It also gave a GI50 [40] of 30.4 µM, a TGI [40] of 56.8 µM and a GI50 [41] of 36.6 µM. For the same molecule, the TGI [41] was 60.6 µM, the GI50 [42] was 33.3 µM and the TGI [42] was > 69.3 µM. For the same molecule, the GI50 [43] was > 75 µM, the TGI [43] was > 100 µM and the GI50 [44] was 28.3 µM. The TGI [44] was 73.7 µM, the GI50 [45] was > 100 µM and the TGI [45] was > 100 µM. For the same molecule, the GI50 [46] was 32.7 µM, the TGI [46] was 48.3 µM and the GI50 [47] was 14.7 µM. The TGI [47] was 22.1 µM, the GI50 [48] was 32 µM and the TGI [48] was > 46.4 µM. The GI50 [49] was > 100 µM, the TGI [49] was > 100 µM and the GI50 [50] was > 100 µM. The TGI [50] was > 100 µM.
